Molecular target: T1, TRPC4 protein (Homo sapiens, UniProt Q9UBN4)
T1 sequence (Q9UBN4 1-977): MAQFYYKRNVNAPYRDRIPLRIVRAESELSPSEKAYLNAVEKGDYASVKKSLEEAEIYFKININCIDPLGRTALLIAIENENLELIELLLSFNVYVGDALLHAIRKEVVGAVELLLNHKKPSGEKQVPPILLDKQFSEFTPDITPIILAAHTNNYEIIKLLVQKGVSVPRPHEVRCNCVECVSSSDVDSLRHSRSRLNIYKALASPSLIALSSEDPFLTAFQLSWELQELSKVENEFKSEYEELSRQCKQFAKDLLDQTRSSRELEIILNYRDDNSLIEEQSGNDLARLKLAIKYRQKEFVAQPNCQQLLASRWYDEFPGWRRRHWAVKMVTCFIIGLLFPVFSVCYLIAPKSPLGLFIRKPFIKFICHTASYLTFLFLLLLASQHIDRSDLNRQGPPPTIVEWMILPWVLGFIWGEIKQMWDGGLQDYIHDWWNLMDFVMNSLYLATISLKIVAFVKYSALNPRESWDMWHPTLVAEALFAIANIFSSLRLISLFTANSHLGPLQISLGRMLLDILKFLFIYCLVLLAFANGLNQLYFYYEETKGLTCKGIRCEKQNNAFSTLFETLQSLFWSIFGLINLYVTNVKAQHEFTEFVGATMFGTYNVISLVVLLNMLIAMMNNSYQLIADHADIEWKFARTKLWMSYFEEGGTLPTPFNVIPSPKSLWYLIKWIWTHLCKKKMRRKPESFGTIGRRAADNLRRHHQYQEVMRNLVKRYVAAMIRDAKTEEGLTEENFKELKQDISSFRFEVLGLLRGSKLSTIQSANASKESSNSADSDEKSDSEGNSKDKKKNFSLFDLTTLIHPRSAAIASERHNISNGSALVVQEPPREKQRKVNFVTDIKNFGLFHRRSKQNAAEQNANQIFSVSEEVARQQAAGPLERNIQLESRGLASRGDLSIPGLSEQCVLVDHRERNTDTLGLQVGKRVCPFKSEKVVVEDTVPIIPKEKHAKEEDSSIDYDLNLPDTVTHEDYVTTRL
Assay: MST binding to TRPC4 protein
Procedure: Preparation and labelling of protein solution: TRPC6 protein dry powder (Alomone Labs, Israel) was prepared into a protein mother solution at a concentration of 10 μM using PBS-Buffer, and 35 μL of the protein stock solution was taken to the Buffer exchange A column, and centrifuged to obtain the Tris-removed protein. 34 μL Labelling Buffer was added to the Tris-removed protein according to the instructions of the Protein Fluorescent Labelling Kit (model L001). After mixing well, 3 μL of NT-647-NHS fluorescent dye was added and thus obtained mixture was incubated for 20 minutes. The protein-dye mixture was transferred to the purification B column, 300 μL of PBS-Buffer was added, and the target protein, i.e. fluorescent labelled protein TRPC6, was collected by centrifugation (with a final concentration of about 2 μM). 180 μL of target protein was mixed with 1620 μL of PBS-Buffer, and then 9 μl of Tween-20 were added thereto. […]
The binding ability of the compounds of the present invention (as exemplified by the compounds 1-1 and 2-1 obtained in Examples 1 and 3) for other TRPC proteins (e.g., TRPC1, TRPC3, TRPC4, TRPC5, and TRPC7) was determined using the microscale thermophoresis (MST) method. […]
The affinity of the compounds of the present invention with TRPC1, TRPC3, TRPC4, TRPC5 and TRPC7 proteins, respectively, was determined by the same method as in Example 5.

| SMILES | Kd for binding to TRPC4 protein |
| --- | --- |
| CC(=O)OCCCNC(=O)c1c(C=O)c2ccccc2n1C [compound 1-1, propyl 3-[(3-formyl-1-methyl-1H-indole-2-carbonyl)amino]acetate] | cannot be measured |
| Cn1c(C(=O)NCCCOC(=O)c2ccccc2)c(C=O)c2ccccc21 [compound 2-1] | cannot be measured |

From patent publication US12692232B2, “Indole carboxamide compound, preparation therefor and use thereof” (NANJING RUISHUNING MEDICAL TECHNOLOGY CO., LTD., priority 2021, dated 2026)
